Assay results published in ChEMBL document CHEMBL3046407, “Toxicity of monoterpenes against larvae and adults of Colorado potato beetle, Leptinotarsa decemlineata Say (Coleoptera: Chrysomelidae)” (2007).

Legend:
Format in all cases: functional
[1] = tested on: Leptinotarsa decemlineata; assay: Insecticidal activity against second-instar larval stage of Leptinotarsa decemlineata infested potato leaves assessed as mortality at 20 ul after 96 hr (reference value: 3.3 +/- 3.3%)
[2] = tested on: Leptinotarsa decemlineata; assay: Insecticidal activity against second-instar larval stage of Leptinotarsa decemlineata infested potato leaves assessed as mortality at 20 ul after 48 hr (reference value: 3.3 +/- 3.3%)
[3] = tested on: Leptinotarsa decemlineata; assay: Insecticidal activity against second-instar larval stage of Leptinotarsa decemlineata infested potato leaves assessed as mortality at 20 ul after 24 hr (reference value: 3.3 +/- 3.3%)
[4] = tested on: Leptinotarsa decemlineata; assay: Insecticidal activity against second-instar larval stage of Leptinotarsa decemlineata infested potato leaves assessed as mortality at 10 ul after 12 hr relative to control
[5] = tested on: Leptinotarsa decemlineata; assay: Insecticidal activity against adult Leptinotarsa decemlineata infested potato leaves assessed as mortality at 20 ul after 96 hr relative to control
[6] = tested on: Leptinotarsa decemlineata; assay: Insecticidal activity against adult Leptinotarsa decemlineata infested potato leaves assessed as mortality at 20 ul after 48 hr relative to control
[7] = tested on: Leptinotarsa decemlineata; assay: Insecticidal activity against adult Leptinotarsa decemlineata infested potato leaves assessed as mortality at 20 ul after 24 hr relative to control
[8] = tested on: Leptinotarsa decemlineata; assay: Insecticidal activity against adult Leptinotarsa decemlineata infested potato leaves assessed as mortality at 20 ul after 12 hr relative to control
[9] = tested on: Leptinotarsa decemlineata; assay: Insecticidal activity against adult Leptinotarsa decemlineata infested potato leaves assessed as mortality at 10 ul after 96 hr relative to control
[10] = tested on: Leptinotarsa decemlineata; assay: Insecticidal activity against adult Leptinotarsa decemlineata infested potato leaves assessed as mortality at 10 ul after 48 hr relative to control
[11] = tested on: Leptinotarsa decemlineata; assay: Insecticidal activity against adult Leptinotarsa decemlineata infested potato leaves assessed as mortality at 10 ul after 24 hr relative to control
[12] = tested on: Leptinotarsa decemlineata; assay: Insecticidal activity against adult Leptinotarsa decemlineata infested potato leaves assessed as mortality at 10 ul after 12 hr relative to control
[13] = tested on: Leptinotarsa decemlineata; assay: Insecticidal activity against second-instar larval stage of Leptinotarsa decemlineata infested potato leaves assessed as mortality at 20 ul after 12 hr relative to control
[14] = tested on: Leptinotarsa decemlineata; assay: Insecticidal activity against second-instar larval stage of Leptinotarsa decemlineata infested potato leaves assessed as mortality at 10 ul after 96 hr (reference value: 3.3 +/- 3.3%)
[15] = tested on: Leptinotarsa decemlineata; assay: Insecticidal activity against second-instar larval stage of Leptinotarsa decemlineata infested potato leaves assessed as mortality at 10 ul after 48 hr (reference value: 3.3 +/- 3.3%)
[16] = tested on: Leptinotarsa decemlineata; assay: Insecticidal activity against second-instar larval stage of Leptinotarsa decemlineata infested potato leaves assessed as mortality at 10 ul after 24 hr (reference value: 3.3 +/- 3.3%)
[17] = tested on: Leptinotarsa decemlineata; assay: Insecticidal activity against first-instar larval stage of Leptinotarsa decemlineata infested potato leaves assessed as mortality at 20 ul after 96 hr relative to control
[18] = tested on: Leptinotarsa decemlineata; assay: Insecticidal activity against first-instar larval stage of Leptinotarsa decemlineata infested potato leaves assessed as mortality at 20 ul after 48 hr relative to control
[19] = tested on: Leptinotarsa decemlineata; assay: Insecticidal activity against first-instar larval stage of Leptinotarsa decemlineata infested potato leaves assessed as mortality at 20 ul after 24 hr relative to control
[20] = tested on: Leptinotarsa decemlineata; assay: Insecticidal activity against first-instar larval stage of Leptinotarsa decemlineata infested potato leaves assessed as mortality at 20 ul after 12 hr relative to control
[21] = tested on: Leptinotarsa decemlineata; assay: Insecticidal activity against first-instar larval stage of Leptinotarsa decemlineata infested potato leaves assessed as mortality at 10 ul after 96 hr relative to control
[22] = tested on: Leptinotarsa decemlineata; assay: Insecticidal activity against first-instar larval stage of Leptinotarsa decemlineata infested potato leaves assessed as mortality at 10 ul after 48 hr relative to control
[23] = tested on: Leptinotarsa decemlineata; assay: Insecticidal activity against first-instar larval stage of Leptinotarsa decemlineata infested potato leaves assessed as mortality at 10 ul after 12 hr relative to control
[24] = tested on: Leptinotarsa decemlineata; assay: Insecticidal activity against first-instar larval stage of Leptinotarsa decemlineata infested potato leaves assessed as mortality at 10 ul after 24 hr relative to control
[25] = tested on: Leptinotarsa decemlineata; assay: Insecticidal activity against third-instar larval stage of Leptinotarsa decemlineata infested potato leaves assessed as mortality at 20 ul after 96 hr (reference value: 3.3 +/- 3.3%)
[26] = tested on: Leptinotarsa decemlineata; assay: Insecticidal activity against third-instar larval stage of Leptinotarsa decemlineata infested potato leaves assessed as mortality at 20 ul after 48 hr (reference value: 3.3 +/- 3.3%)
[27] = tested on: Leptinotarsa decemlineata; assay: Insecticidal activity against third-instar larval stage of Leptinotarsa decemlineata infested potato leaves assessed as mortality at 20 ul after 24 hr relative to control
[28] = tested on: Leptinotarsa decemlineata; assay: Insecticidal activity against third-instar larval stage of Leptinotarsa decemlineata infested potato leaves assessed as mortality at 20 ul after 12 hr relative to control
[29] = tested on: Leptinotarsa decemlineata; assay: Insecticidal activity against third-instar larval stage of Leptinotarsa decemlineata infested potato leaves assessed as mortality at 10 ul after 96 hr (reference value: 3.3 +/- 3.3%)
[30] = tested on: Leptinotarsa decemlineata; assay: Insecticidal activity against third-instar larval stage of Leptinotarsa decemlineata infested potato leaves assessed as mortality at 10 ul after 48 hr (reference value: 3.3 +/- 3.3%)
[31] = tested on: Leptinotarsa decemlineata; assay: Insecticidal activity against third-instar larval stage of Leptinotarsa decemlineata infested potato leaves assessed as mortality at 10 ul after 24 hr relative to control
[32] = tested on: Leptinotarsa decemlineata; assay: Insecticidal activity against third-instar larval stage of Leptinotarsa decemlineata infested potato leaves assessed as mortality at 10 ul after 12 hr relative to control

Compound	mortality [1]	mortality [2]	mortality [3]	mortality [4]	mortality [5]	mortality [6]	mortality [7]	mortality [8]	mortality [9]	mortality [10]	mortality [11]	mortality [12]	mortality [13]	mortality [14]	mortality [15]	mortality [16]	mortality [17]	mortality [18]	mortality [19]	mortality [20]	other results
C=CC(C)(O)CCC=C(C)C (stereo not given) [LINALOOL]	100%	100%	93.3%	20%	100%	100%	73.3%	30%	90%	83.3%	73.3%	16.7%	36.7%	100%	76.7%	73.3%	100%	100%	93.3%	40%	mortality [21]: 100%; mortality [22]: 63.3%; mortality [23]: 26.7%; mortality [24]: 53.3%; mortality [25]: 40%; mortality [26]: 36.7%; mortality [27]: 33.3%; mortality [28]: 6.7%; mortality [29]: 23.3%; mortality [30]: 20%; mortality [31]: 13.3%; mortality [32]: 3.3%
C=C(C)[C@@H]1CC[C@@H](C)C(=O)C1 [DIHYDROCARVONE]	100%	86.7%	83.3%	23.3%	80%	63.3%	23.3%	0%	63.3%	53.3%	30%	6.7%	36.7%	83.3%	76.7%	63.3%	80%	70%	50%	26.7%	mortality [21]: 40%; mortality [22]: 33.3%; mortality [23]: 0%; mortality [24]: 33.3%; mortality [25]: 76.7%; mortality [26]: 60%; mortality [27]: 46.7%; mortality [28]: 16.7%; mortality [29]: 23.3%; mortality [30]: 16.7%; mortality [31]: 16.7%; mortality [32]: 0%
CC(=O)OC/C=C(\C)CCC=C(C)C [GERANYL ACETATE]	23.3%	23.3%	10%	3.3%	26.7%	16.7%	10%	3.3%	10%	10%	3.3%	0%	6.7%	20%	20%	3.3%	16.7%	10%	6.7%	0%	mortality [21]: 6.7%; mortality [22]: 0%; mortality [23]: 0%; mortality [24]: 0%; mortality [25]: 16.7%; mortality [26]: 16.7%; mortality [27]: 16.7%; mortality [28]: 6.7%; mortality [29]: 13.3%; mortality [30]: 13.3%; mortality [31]: 10%; mortality [32]: 6.7%
C/C=C(C)/C=C/C=C(C)C [ALLO-OCIMENE]	60%	53.3%	43.3%	23.3%	23.3%	20%	20%	3.3%	3.3%	3.3%	3.3%	3.3%	30%	66.7%	50%	40%	56.7%	46.7%	33.3%	16.7%	mortality [21]: 56.7%; mortality [22]: 46.7%; mortality [23]: 13.3%; mortality [24]: 33.3%; mortality [25]: 26.7%; mortality [26]: 23.3%; mortality [27]: 23.3%; mortality [28]: 23.3%; mortality [29]: 0%; mortality [30]: 0%; mortality [31]: 0%; mortality [32]: 0%
CC1=CCC2C(C1)C2(C)C (stereo not given) [CARENE]	93.3%	93.3%	86.7%	46.7%	86.7%	86.7%	80%	50%	80%	80%	73.3%	36.7%	76.7%	100%	100%	73.3%	86.7%	86.7%	70%	56.7%	mortality [21]: 100%; mortality [22]: 86.7%; mortality [23]: 36.7%; mortality [24]: 63.3%; mortality [25]: 100%; mortality [26]: 100%; mortality [27]: 100%; mortality [28]: 100%; mortality [29]: 100%; mortality [30]: 100%; mortality [31]: 100%; mortality [32]: 100%
